From US12325744B2, “Methods for reducing post-operative cognitive dysfunction (POCD)” (The Kennedy Trust for Rheumatology Research, priority 2010, dated 2025)
“Also recorded” adds a separate entry of the source.

Assays:
C57BL/6 male mice [1] = test: Trace fear conditioning, contextual fear response after LPS injection; type: in vivo; settings: LPS within 30 min after training, tested day 3, IL-1Ra pre-treatment
Method: (§1) Treatment. LPS derived from Escherichia Coli endotoxin ([…], InvivoGen, USA, 1 mg/kg) was dissolved in normal saline and injected intraperitoneally. IL-1Ra (Amgen, Anakinra 100 mg/kg, Nederlands) was given subcutaneously immediately before LPS administration. Dose response curve from LPS or IL-1Ra was obtained from our pilot studies to provoke or to suppress moderate degree of microglia activation respectively. Control animals were injected with equivalent volumes (0.1 ml) of saline. Mice from each treatment group were randomly assigned for assessment of either cytokine response or cognitive behavior, in order to obviate possible confounding effects of behavioral testing on inflammatory markers.
Behavioral measurement (conditioning). The behavioral study was conducted using a dedicated conditioning chamber (Med Associates Inc., USA). Mice were trained and tested on separate days. LPS was injected within 30 minutes following training. […] Three days after training, mice were returned to the same chamber in which training occurred (context), and freezing behavior was recorded. […] Approximately 3 h later, freezing was recorded in a novel environment and in response to the cue (tone). The auditory cue was then presented for 3 min, and freezing scored again. Freezing scores for each subject were expressed as a percentage for each portion of the test. […]

microglia = test: Hippocampal microglia anti-CD11b immunohistochemistry grading after LPS injection; type: in vivo, mice; settings: LPS 1 mg/kg i.p.; IL-1Ra pre-treatment; days 1 and 3
Method: as §1
Immunohistochemistry (IHC). Mice were euthanized and perfused transcardially with ice-cold heparinized 0.1M phosphate buffer solution (PBS) followed by 4% paraformaldehyde in 0.1M PBS at pH 7.4 (VWR International, UK). The brains were harvested and post-fixed in 4% paraformaldehyde in 0.1M PBS at 4° C. and cryoprotected in 0.1M PBS solutions containing 15% sucrose for 24 hours (VWR International, UK) and then 30% sucrose for a further 48 hours. Brain tissue was freeze-mounted in OCT embedding medium (VWR International, UK). The 25 μm thick coronal sections of the hippocampus were cut sequentially in groups of 6 and mounted on Superfrost® plus slides (Menzel-Glaser, Germany). […]

IL-1β = test: Hippocampal IL-1β by ELISA after tibial surgery; type: in vivo; settings: wild type mice, 6 h (minocycline, enrofloxacin) or 24 h (IL-1Ra) after surgery
Method: IL-6, TNF-α and IL-1β were measured by ELISA^19 (Biosource, CA; Bender Medsystem, CA, respectively). Hippocampal IL-1β was measured by ELISA (Bender Medsystem, CA), as previously described^20. To confirm reliability of dilution linearity and spike recovery cytokine measurement were also performed in mice in which inflammation was induced with i.p. LPS (0111:B4, Invivogen, CA). (For further details please refer to supplemental methods).
Under terminal anesthesia with pentobarbital, each mouse was euthanized and the brain quickly removed following decapitation. The hippocampus was dissected under microscopy on a frosted glass plate placed on top of crushed ice, then snap frozen and stored at −80° C. until processing. Each hippocampus was added to Iscove's culture medium containing 5% fetal calf serum (FCS) and a cocktail of enzyme inhibitors (in mM: 100 amino-n-caproic acid, 10 EDTA, 5 benzamidine-HCl, and 0.2 phenylmethylsulfonyl fluoride). […] IL-1β was measured in the supernatant from hippocampal extracts, which were appropriately diluted prior to measurement to fall on the linear portion of the sigmoid curve, using a commercially available ELISA kit (Bender Medsystem, CA). […]
Cytokine analyses: Systemic and hippocampal IL-1β was measured by ELISA (Bender Medsystem, CA; 1.2 pg/ml of sensitivity), as previously described (12).

C57BL/6 male mice [2] = test: Observation of sickness behavior after LPS injection; type: in vivo; settings: LPS 1 mg/kg i.p.; IL-1Ra pre-treatment
Method: Animals. All the experiments were conducted under the UK Home Office approved license. Wild type C57BL/6 male mice, 12-14 weeks old, weighting 25-30 g were used and housed in groups of five in a 12-h-12-h light dark cycle, with controlled temperature and humidity with free access to food and water. IL-1R^−/− (kindly provided by Nancy Rothwell, University of Manchester) were bred in-house on a C57BL/6 background and age-matched to wild type counterparts. Seven days of acclimatization were allowed before starting any experiment. All the animals were checked on a daily basis and evidence of poor grooming, huddling, piloerection, weight loss, back arching and abnormal activity, were excluded in the experiments.
as §1, with “Mice from each treatment group were randomly assigned for assessment of either cytokine response or cognitive behavior, in order to obviate possible confounding effects of behavioral testing on inflammatory markers.” left out

For “IL-1Ra: IL-1 receptor antagonist (Amgen, Anakinra)”, the “Contextual fear response (freezing) after LPS, effect of IL-1Ra” value (C57BL/6 male mice [1]) was “significantly ameliorated the memory retention at day 3; also recorded: significantly ameliorated this cognitive dysfunction”, the “Reactive microglia in hippocampus after LPS, effect of IL-1Ra” value (microglia) was “Reduction in the number of reactive microglia was observed; also recorded: attenuated by IL-1Ra treatment; also recorded: effectively reduced the number of reactive microglia at days 1 and 3” and the “Hippocampal IL-1β expression after surgery, effect of treatment” value (IL-1β) was “did not increase hippocampal microgliosis (FIG. 6, A-B-C) or expression of IL-1β; also recorded: Hippocampal IL-1β did not significantly increase”. For the same substance, the “Symptoms of sickness behavior after LPS, effect of IL-1Ra” value (C57BL/6 male mice [2]) was “abolished the main symptoms of sickness behavior”.
